According to US20230165812A1, “NOCICEPTOR NEURONS CONTROL CANCER IMMUNOSURVEILLANCE” (priority 2020, published 2023):
Entries after “also recorded” stand apart in the source; their conditions may differ. Where two headings read alike, the source gives them in different places.

Columns and labels:
B16F10 [1] = test system: B16F10; set-up: species or system mice; settings: mouse, in vivo
[2] = test system: tumor-infiltrating CD8+ and CD4+ T-cells; assay type: in vivo, mice; settings: for reduction of the proportion of PD1+Lag3+Tim3+ CD8+ T-cells: intra-tumoral, QX-314 0.3% daily i.d.
B16F10 cells = assay type: cell-based, mouse; settings: BIBN4096 1-4 μM
B16F10 [3] = assay type: in vivo, mice; settings: for reduction of B16F10 melanoma growth compared with vehicle / reduction of tumor weight compared with vehicle: B16F10-bearing mice; for reduction of B16F10 melanoma growth compared with vehicle: QX-314 0.3% daily i.d. surrounding the tumor, BIBN4096 systemically once every two days (5 mg/kg i.p.); for reduction of tumor weight compared with vehicle: QX-314 0.3% daily i.d., BIBN4096 5 mg/kg i.p.
CGRP receptor = CGRP receptor (Mus musculus, UniProt Q9R1W5+Q9WTJ5); settings: in vivo; cited from earlier work
Chain of CGRP receptor (Q9R1W5 25-463): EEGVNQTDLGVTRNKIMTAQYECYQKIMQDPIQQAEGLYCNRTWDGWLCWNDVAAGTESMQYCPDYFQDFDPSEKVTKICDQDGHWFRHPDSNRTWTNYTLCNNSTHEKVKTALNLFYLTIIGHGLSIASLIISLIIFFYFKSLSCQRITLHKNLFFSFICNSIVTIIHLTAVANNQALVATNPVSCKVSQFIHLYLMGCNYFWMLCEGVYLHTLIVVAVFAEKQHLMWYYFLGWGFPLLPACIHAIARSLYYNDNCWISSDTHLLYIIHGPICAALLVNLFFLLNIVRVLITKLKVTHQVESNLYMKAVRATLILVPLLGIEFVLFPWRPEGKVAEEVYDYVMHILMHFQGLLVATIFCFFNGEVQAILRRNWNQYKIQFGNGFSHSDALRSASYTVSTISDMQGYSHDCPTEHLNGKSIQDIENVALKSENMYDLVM
Chain of CGRP receptor (Q9WTJ5 27-148): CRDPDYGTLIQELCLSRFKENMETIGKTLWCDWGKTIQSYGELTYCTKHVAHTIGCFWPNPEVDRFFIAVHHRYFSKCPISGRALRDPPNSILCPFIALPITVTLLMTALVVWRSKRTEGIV

[4] = test system: tumor-infiltrating CD8 and CD4 T cells; assay type: in vivo, mice
[5] = test system: cytotoxic CD8+ T-cells co-cultured with DRG neurons; test: DRG neuron / cytotoxic CD8+ T-cell co-culture; assay type: cell-based, mice; settings: for INFγ+ CD8+ T-cells in co-culture with DRG neurons / TNFα+ CD8+ T-cells in co-culture with DRG neurons / proportion of PD1+Lag3+Tim3+ CD8+ T-cells in co-culture with DRG neurons: neuron stimulation, 48 h co-culture
Protocol: Naïve DRG neurons (1×10^4) were seeded in T cell media (supplemented with 0.05 ng/μL NGF (Life Technologies, #13257-019), 0.002 ng/μL GDNF (Peprotech, #450-51-10), and co-cultured with Tc1 CD8 T cells (1×10^5) in presence of IL-2 (575408). In some instances, co-cultures were stimulated with either of capsaicin (300 nM, twice/day) or KCl (40 mM). After 48 h, the cells were collected by centrifugation (5 min at 1300 rpm), stained and immunophenotyped by flow cytometry.

CGRP = test system: CGRP; set-up: species or system mice; settings: capsaicin 1 μM; 3 h
[6] = test system: cytotoxic CD8+ T-cells co-cultured with DRG neurons; test: DRG neuron / cytotoxic CD8+ T-cell co-culture; assay type: cell-based, mice; settings: capsaicin without neurons
B16F10 [7] = assay type: in vivo, mice

## NCCCC[C@H](NC(=O)[C@@H](Cc1cc(Br)c(O)c(Br)c1)NC(=O)N1CCC(N2Cc3ccccc3NC2=O)CC1)C(=O)N1CCN(c2ccncc2)CC1 [BIBN4096]
B16F10 [1]
  B16F10 tumor growth: reduced; also recorded: decreased
  B16F10 tumor volume: reduced
  B16F10 tumor weight: reduced
Cytotoxic CD8+ T-cells
  IL2+ cultured cytotoxic CD8+ T-cells: do not impact
  INFγ+ cultured cytotoxic CD8+ T-cells: do not impact
  TNFα+ cultured cytotoxic CD8+ T-cells: do not impact
  proportion of PD1+Lag3+Tim3+ cultured cytotoxic CD8+ T-cells: do not impact
  survival of cultured cytotoxic CD8+ T-cells: do not impact
Cytotoxic CD8+ T-cells; BIBN4096 1-4 μM
  effects of αCD3/αCD28 stimulation on CD8+ T-cells: do not prevent
[2]; BIBN4096 5 mg/kg i.p.
  increase of intra-tumor number of INFγ+ CD8+ T-cells: ~3 fold
  increase of intra-tumor number of total CD8+ T-cells: ~3 fold
  intra-tumoral number of Granzyme B+ CD4+ T-cells: increased
  intra-tumoral number of INFγ+ CD4+ T-cells: increased
  intra-tumoral number of TNFα+ CD4+ T-cells: increased
  intra-tumoral proportion of PD1+ CD4+ T-cells: decreased
  reduction of the proportion of PD1+Lag3+Tim3+ CD8+ T-cells: ~2.5 fold
[2]; Example 1 dosing
  intra-tumoral number of Granzyme B+ CD8+ T-cells: increased
  intra-tumoral number of INFγ+ CD8+ T-cells: increased
  intra-tumoral number of TNFα+ CD8+ T-cells: increased
  intra-tumoral number of total CD8+ T-cells: increased
[2]; mouse, in vivo
  intra-tumoral total CD4+ T-cells counts: increased
[2]; mouse, in vivo, ip, 5 mg/kg
  number/proportion of intra-tumor PD1+Lag3+Tim3+ CD8+ T-cells: decreased
B16F10 cells
  cultured B16F10 survival: no impact
B16F10 [3]
  reduction of B16F10 melanoma growth compared with vehicle: ~1.5 fold
  reduction of tumor weight compared with vehicle: ~1.9 fold
B16F10 [3]; mouse, in vivo, ip, 5 mg/kg
  B16F10 tumor growth: decreased
  B16F10 tumor volume: decreased
  B16F10 tumor weight: decreased
CGRP receptor
  host anti-bacterial activity during microbe infection: rescues
[4]; BIBN 5 mg/kg
  intra-tumor PD1+ CD8 T cells: decreased
[4]; BIBN 5 mg/kg i.d.
  tumor infiltration of PD1+ CD4 T cells: decreased
[4]; Example 2 dosing
  infiltration of INFγ+ CD8 T cells: increasing; also recorded: enhanced
  total number of intra-tumoral CD4 T cells: enhanced; also recorded: increased
  tumor infiltration of INFγ+ CD4 T cells: increased
  tumor infiltration of TNFα+ CD4 T cells: decreased
  tumor infiltration of TNFα+ CD8 T cells: increasing; also recorded: increased
[4]; mouse, in vivo
  tumor infiltration of Granzyme B+ CD4 T cells: increased
  tumor infiltration of Granzyme B+ CD8 T cells: increasing; also recorded: increased

## [Cl-].[K+] [KCl, potassium chloride]
[5]
  INFγ+ CD8+ T-cells in co-culture with DRG neurons: decreased
  TNFα+ CD8+ T-cells in co-culture with DRG neurons: decreased
  proportion of PD1+Lag3+Tim3+ CD8+ T-cells in co-culture with DRG neurons: increased

## COc1cc(CNC(=O)CCCC/C=C/C(C)C)ccc1O [capsaicin]
CGRP
  CGRP levels in B16F10 tumor surrounding skin explant: further enhanced
[6]
  impact on CD8+ T-cells in the absence of neurons: no measurable impact
[5]; capsaicin-challenge
  IL2+ CD8+ T-cells in co-culture with DRG neurons: decreased
  proportion of PD1+ T cells in co-culture with DRG neurons: increases
[5]
  INFγ+ CD8+ T-cells in co-culture with DRG neurons: reduced; also recorded: decreased
  TNFα+ CD8+ T-cells in co-culture with DRG neurons: decreased; also recorded: reduced
  proportion of PD1+Lag3+Tim3+ CD8+ T-cells in co-culture with DRG neurons: increased
[5]; listed as Capsaicin
  INFγ+ CD8+ T-cells in co-culture with DRG neurons: decreased
  TNFα+ CD8+ T-cells in co-culture with DRG neurons: decreased

## CC[N+](CC)(CC)CC(=O)Nc1c(C)cccc1C [QX-314]
Cytotoxic CD8+ T-cells
  IL2+ cultured cytotoxic CD8+ T-cells: do not impact
  INFγ+ cultured cytotoxic CD8+ T-cells: do not impact
  TNFα+ cultured cytotoxic CD8+ T-cells: do not impact
  proportion of PD1+Lag3+Tim3+ cultured cytotoxic CD8+ T-cells: do not impact
  survival of cultured cytotoxic CD8+ T-cells: do not impact
[2]; BIBN4096 5 mg/kg i.p.
  reduction of the proportion of PD1+Lag3+Tim3+ CD8+ T-cells: ~15 fold
B16F10 [7]; B16F10-bearing mice, p≤0.0001
  rate at which vehicle exposed mice succumb relative to treated mice: 2.7 fold
B16F10 [7]; mouse, in vivo
  hazard ratio (survival): 0.37
B16F10 [3]
  reduction of B16F10 melanoma growth compared with vehicle: ~3.3 fold
  reduction of tumor weight compared with vehicle: ~5.2 fold
